Measured values reported in patent US9518033B2, “(4E)-4-(4-substituted benzylideneamino)-2,3-dihydro-3-substituted-2-thioxothiazole-5-carbonitriles as A2AR antagonist and process for preparation thereof” (COUNCIL OF SCIENTIFIC & INDUSTRIAL RESEARCH, priority 2013, dated 2016).
“And” between values parts separate entries of the source, which are not always exact repeats. Equal values may be shown once.

Columns and labels:
human A2AR = target: T1, human A2AR (Homo sapiens, UniProt P29274); assay: Radioligand competitive binding assay, [3H] ZM 241385 displacement; settings: for Ki: membranes of transfected HEK 293T cells, 1 nM [3H] ZM 241385, read-out: Ki A2A; for A1/A2A (selectivity): ratio Ki A1 / Ki A2A; for binding affinity and selectivity (in words): A2AR over A1R
T1 construct: expressed in transfected cells; host or cells: HEK 293T
Description: Cells were washed twice with ice-cold PBS (pH 7.4). Pellet of washed cells was resuspended in hypotonic lysis buffer (10 mM NaCl, 2 mM MgCl2, 1 mM DTT, 10 mM Hepes, 2 mM PMSF, pH 7.4) and sonicated (4 cycles of 10 s duration each). Homogenate were centrifuged at 2,500 rpm for 10 minutes at 4° C. Resulting supernatants was again centrifuged at 38,000 rpm for 30 minutes at 4° C. Pellets obtained were resuspended in Tris-HCl (pH 7.4) buffer. […] Aliquots of membrane proteins from both A2AR and A1R were rapidly frozen and stored at −20° C. Radioligand [^3H] […] DPCPX were purchased from American Radiolabeled Chemicals, St. Louis, USA.
About 10 μg of membrane protein was added to each well of a 96-well filter plate. Incubation buffer containing adenosine deaminase (2.5 U/ml) was added to the membrane protein and incubated at 37° C. for 1 h, to remove endogenous adenosine. Varying concentrations (1 pM to 1 μM) of test compounds of general formula A was added in duplicate and volume was adjusted to 50 μl by adding incubation buffer. […] Filter plates were incubated at 26° C. for 30 minutes and reaction was terminated by rapid filtration of unbound radioligands. Filters containing ligand bound receptors were washed three times with ice-cold washing buffer to completely remove any unbound radioligand or receptor. Finally, 100 μl of scintillation fluid was added to each well and incubated overnight at room temperature. β-counts emitted from bound radioligands ([^3H] ZM241385 and [^3H] DPCPX) were counted using β-counter. Duplicate values of β-counts per minute at corresponding concentrations (1 pM to 1 μM) were added to the data sheet of graph pad prism 4.0. Concentration values were considered as X-values and counts per minute were considered as Y-values (in duplicate). X-values were transformed into log X and Ki value was calculated using nonlinear regression (curve fit program).

human A1R = target: T2, human A1R (Homo sapiens, UniProt P30542); assay: Radioligand competitive binding assay, [3H] DPCPX displacement; settings: membranes of transfected HEK 293T cells, 1 nM [3H] DPCPX; read-out: Ki A1
T2 construct: expressed in transfected cells; host or cells: HEK 293T
T2 sequence (P30542 1-326): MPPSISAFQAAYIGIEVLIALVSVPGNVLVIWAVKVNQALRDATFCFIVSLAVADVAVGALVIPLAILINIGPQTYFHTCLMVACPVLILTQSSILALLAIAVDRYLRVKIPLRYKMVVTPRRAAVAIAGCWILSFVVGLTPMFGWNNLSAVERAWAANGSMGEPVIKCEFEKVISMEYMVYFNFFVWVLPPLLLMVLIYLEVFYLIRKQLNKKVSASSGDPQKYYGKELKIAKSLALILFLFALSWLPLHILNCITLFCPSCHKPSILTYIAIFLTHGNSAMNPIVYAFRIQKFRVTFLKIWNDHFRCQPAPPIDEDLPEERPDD
Description: About 1×10^6 cells per ml of transfected HEK 293T cells with human A2AR and A1R were centrifuged at 2,500 rpm for 2 minutes in 15 ml centrifuge tubes. Cells were washed twice with ice-cold PBS (pH 7.4). Pellet of washed cells was resuspended in hypotonic lysis buffer (10 mM NaCl, 2 mM MgCl2, 1 mM DTT, 10 mM Hepes, 2 mM PMSF, pH 7.4) and sonicated (4 cycles of 10 s duration each). Homogenate were centrifuged at 2,500 rpm for 10 minutes at 4° C. Resulting supernatants was again centrifuged at 38,000 rpm for 30 minutes at 4° C. Pellets obtained were resuspended in Tris-HCl (pH 7.4) buffer. Membrane protein concentrations were determined using Lowry method (Lowry et al., 1951). Aliquots of membrane proteins from both A2AR and A1R were rapidly frozen and stored at −20° C. Radioligand [^3H] ZM 241385 and [^3H] DPCPX were purchased from American Radiolabeled Chemicals, St. Louis, USA.
About 10 μg of membrane protein was added to each well of a 96-well filter plate. Incubation buffer containing adenosine deaminase (2.5 U/ml) was added to the membrane protein and incubated at 37° C. for 1 h, to remove endogenous adenosine. Varying concentrations (1 pM to 1 μM) of test compounds of general formula A was added in duplicate and volume was adjusted to 50 μl by adding incubation buffer. Further, constant concentration of radioligands (1 nM for [^3H] ZM 241385 and 1 nM of [^3H] DPCPX) was added to respective wells and final volume was adjusted to 200 μl by adding the incubation buffer. Filter plates were incubated at 26° C. for 30 minutes and reaction was terminated by rapid filtration of unbound radioligands. Filters containing ligand bound receptors were washed three times with ice-cold washing buffer to completely remove any unbound radioligand or receptor. Finally, 100 μl of scintillation fluid was added to each well and incubated overnight at room temperature. β-counts emitted from bound radioligands ([^3H] ZM241385 and [^3H] DPCPX) were counted using β-counter. Duplicate values of β-counts per minute at corresponding concentrations (1 pM to 1 μM) were added to the data sheet of graph pad prism 4.0. Concentration values were considered as X-values and counts per minute were considered as Y-values (in duplicate). X-values were transformed into log X and Ki value was calculated using nonlinear regression (curve fit program). The calculated Ki values for A2AR and A1R are given bellow (table 1).

[1] = tested on: haloperidol induced catalepsy; assay: Haloperidol induced catalepsy in mice; assay type: in vivo, Swiss Albino male mice; settings: for catalepsy score: haloperidol 2.5 mg/kg, after 120 min
Description: Adult Swiss Albino male mice (4-6 weeks, 20-30 g) were pro-cured from National Institute of Communicable Diseases, Delhi, India and were kept under controlled conditions of temperature (22±1° C.), humidity (60±5%), and illumination (12 h light; 12 h darkness) at the animal house, Dr. B. R. Ambedkar Centre for Bio-medical Research, University of Delhi, Delhi, India. The experimental protocol met the National Guidelines on the ‘Proper Care and Use of Animals in Laboratory Research’ (Indian National Science Academy, New Delhi) and was approved by the Animal Ethics Committee of the department. The procedures adhered to the NIH Guidelines for the Care and Use of Laboratory Animals.
Double distilled filtered and deionized water (Milli-Q-system Waters, Milford, Mass.) was used through out the study. […] Mice were divided into seven groups of four mice each. […] Saline and 1% acacia in saline were injected to two control groups.
The inability of an animal to correct an externally imposed posture (Catalepsy score) was measured at different time intervals with both limbs on a square wooden block (3 cm high) by placing the animals on a flat horizontal surface. The length of time that animals held the bar without any voluntary movement was recorded, with a cutoff time of 3 min. Catalepsy score of each mice in a group was taken to compute the mean value of the group.

human A2A receptors = target: T3, human A2A receptors (Homo sapiens, UniProt P29274); assay: cAMP functional assay in NECA stimulated HEK293T cells; assay type: cell-based
T3 construct: expressed in transfected cells; host or cells: HEK 293T
Description: Standard curve was prepared using Logit-Log Paper plot by drawing percent bound (B/Bo) versus concentration of cAMP for the standards. The concentration of the cAMP in the samples was determined by interpolation.

[2] = 10 mg/kg ip pre-treatment, mean±SEM, n=4

T1 sequence (P29274 whole entry): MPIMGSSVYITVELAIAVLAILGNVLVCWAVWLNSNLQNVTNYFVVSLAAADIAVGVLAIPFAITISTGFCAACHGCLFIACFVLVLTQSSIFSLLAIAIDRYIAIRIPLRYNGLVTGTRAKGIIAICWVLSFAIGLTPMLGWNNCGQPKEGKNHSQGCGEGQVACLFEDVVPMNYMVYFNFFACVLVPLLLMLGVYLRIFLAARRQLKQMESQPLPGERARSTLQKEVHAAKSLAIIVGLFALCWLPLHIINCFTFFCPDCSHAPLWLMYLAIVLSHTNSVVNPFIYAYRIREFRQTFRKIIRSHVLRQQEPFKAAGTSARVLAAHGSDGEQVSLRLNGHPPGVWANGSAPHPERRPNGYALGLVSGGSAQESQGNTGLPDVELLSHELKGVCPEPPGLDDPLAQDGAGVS
T3 sequence (P29274 whole entry): as above

Ki (human A2AR) | A1/A2A (selectivity) (human A2AR) | Ki (human A1R) | Compound | also measured
11 nM | 0.000053 |  | CCn1c(/N=C/c2ccc(F)cc2)c(C#N)sc1=S [Compound 2a, (4E)-4-(4-fluorobenzylideneamino)-3-ethyl-2,3-dihydro-2-thioxothiazole-5-carbonitrile] | 
0.03 nM | 3393.3 | 102 nM | CCCn1c(/N=C/c2ccc(F)cc2)c(C#N)sc1=S [Compound 2b, (4E)4-(4-fluorobenzylideneamino)-3-propyl-2,3-dihydro-2-thioxothiazole-5-carbonitrile] | binding affinity and selectivity (in words) (human A2AR): both high binding affinity and selectivity
0.027 nM | 618.51 | 16.7 nM | CCCCn1c(N=Cc2ccc(F)cc2)c(C#N)sc1=S [Compound 2c, (4E)-4-flurobenzylideneamino)-3-butyl-2,3-dihydro-2-thioxothiazole-5-carbonitrile] | 
2.64 nM | 336.81 | 889 nM | N#Cc1sc(=S)n(CCc2ccccc2)c1N=Cc1ccc(F)cc1 [Compound 2d, (4E)-4-(4-flurobenzylideneamino)-3-phenylethyl-2,3-dihydro-2-thioxothiazole-5-carbonitrile] | 
0.0047 nM | 0.13 |  | N#Cc1sc(=S)n(-c2ccccc2)c1/N=C/c1ccc(F)cc1 [Compound 2e, (4E)-4-(4-flurobenzylideneamino)-3-phenyl-2,3-dihydro-2-thioxothiazole-5-carbonitrile] | 
 | 13.76 |  | CCn1c(/N=C/c2ccc(Cl)cc2)c(C#N)sc1=S [Compound 2f, (4E)-4-(4-chlorobenzylideneamino)-3-ethyl-2,3-dihydro-2-thioxothiazole-5-carbonitrile] | 
54.8 nM | 0.042 | 2.32 nM | CCCn1c(/N=C/c2ccc(Cl)cc2)c(C#N)sc1=S [Compound 2g, (4E)4-(4-chlorobenzylideneamino)-3-propyl-2,3-dihydro-2-thioxothiazole-5-carbonitrile] | 
9.6 nM | 2565 and 2565.62 | 24600 nM | CCCCn1c(/N=C/c2ccc(Cl)cc2)c(C#N)sc1=S [Compound 2h] | binding affinity and selectivity (in words) (human A2AR): both high binding affinity and selectivity
0.14 nM | 2947 and 2947.85 | 413 nM | N#Cc1sc(=S)n(-c2ccccc2)c1/N=C/c1ccc(Cl)cc1 [Compound 2i, (4E)4-(4-chlorobenzylideneamino)-3-phenyl-2,3-dihydro-2-thioxothiazole-5-carbonitrile] | melting point: 187 to 189 °C; binding affinity and selectivity (in words) (human A2AR): both high binding affinity and selectivity
0.01 nM | 0.074 |  | CCn1c(/N=C/c2ccc(Br)cc2)c(C#N)sc1=S [Compound 2j, (4E)-4-(4-Bromobenzylideneamino)-3-ethyl-2,3-dihydro-2-thioxothiazole-5-carbonitrile] | 
1.8 nM | 337.05 | 607 nM | CCCn1c(/N=C/c2ccc(Br)cc2)c(C#N)sc1=S [Compound 2k, (4E)4-(4-bromobenzylideneamino)-3-propyl-2,3-dihydro-2-thioxothiazole-5-carbonitrile] | 
7.61 nM | 0.013 | 0.1 nM | CCCCn1c(/N=C/c2ccc(Br)cc2)c(C#N)sc1=S [Compound 2l, (4E)-4-(4-bromobenzylideneamino)-3-butyl-2,3-dihydro-2-thioxothiazole-5-carbonitrile] | 
0.067 nM | 3.73 | 0.25 nM | N#Cc1sc(=S)n(CCc2ccccc2)c1/N=C/c1ccc(Br)cc1 [Compound 2m, (4E)4-(4-bromobenzylideneamino)-3-phenylethyl-2,3-dihydro-2-thioxothiazole-5-carbonitrile] | 
0.004 nM and 0.0042 nM |  | 186 nM | N#Cc1sc(=S)n(-c2ccccc2)c1/N=C/c1ccc(Br)cc1 [Compound 2n, (4E)4-(4-bromobenzylideneamino)-3-phenyl-2,3-dihydro-2-thioxothiazole-5-carbonitrile] | melting point: 185 to 187 °C; catalepsy score [1, 2]: 0.75±0.144; catalepsy score ([1]; pre-treatment at 5, 10, 15, 20 mg/kg): 0.75±0.140; catalepsy score, compound alone ([1]; without haloperidol, up to 120 minutes): zero
 |  |  | Nc1nc2c(cnn2CCc2ccccc2)c2nc(-c3ccco3)nn12 [SCH58261, reference compound] | cAMP concentration (human A2A receptors): 0.55 pmol/mL; selectivity to A2AR (human A2AR; reference SCH58261): 483 fold; catalepsy score [1, 2]: 0.65±0.125; catalepsy score ([1]; 10 mg/kg ip pre-treatment, mean±SEM, n=4, listed as SCH 58261): 0.625±0.125
